Data on five compounds can be found in patent publication US9474790B2, “Stable, protracted GLP-1/glucagon receptor co-agonists for medical use” (Novo Nordisk A/S, priority 2013, dated 2016).

SMILES strings stand for the structures. Numbered stars: 1 amine (or outer) side, 2 acyl side, 3 side chain; on linkers, the order of the positions; unused ones are H or OH. Square brackets hold non-standard residues; d marks the D form. Side chains are listed from the residue outwards. Peptide text beside a SMILES is read from it. * marks the point of attachment. C18 diacid = O=C(O)CCCCCCCCCCCCCCCCC(=O)*; γGlu = O=C(O)[C@H](CCC(=O)[*:2])N[*:1]; Ac4c = NC1(C(=O)O)CCC1; AEEA = NCCOCCOCC(=O)O; Aib = CC(C)(N)C(=O)O

This test deals with T1, human glucagon receptor (Homo sapiens, UniProt P47871).
T1 construct: expressed in transfected cells; host or cells: BHK cells (parent BHK570, CRE luciferase clone BHK/KZ10-20-48), clone pLJ6'-4-25
In words: Glucagon receptor potency, CRE luciferase reporter gene assay in BHK cells. The settings on record: BHK cells expressing human glucagon receptor, read-out: EC50 GlucR. Format: cell-based. An outline of the steps: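 Stably transfected BHK cells (BHK570 background) expressing human glucagon receptor with CRE-firefly luciferase reporter, 5×10EE3 cells/well in DMEM/HEPES with 2% ovalbumin and 0.2% Pluronic F-68. Compounds 1×10EE-13 to 1×10EE-6 M final, 3 h at 37 °C; luminescence read, EC50 from four-parameter fit, in pM.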

T1 sequence (P47871 26-477): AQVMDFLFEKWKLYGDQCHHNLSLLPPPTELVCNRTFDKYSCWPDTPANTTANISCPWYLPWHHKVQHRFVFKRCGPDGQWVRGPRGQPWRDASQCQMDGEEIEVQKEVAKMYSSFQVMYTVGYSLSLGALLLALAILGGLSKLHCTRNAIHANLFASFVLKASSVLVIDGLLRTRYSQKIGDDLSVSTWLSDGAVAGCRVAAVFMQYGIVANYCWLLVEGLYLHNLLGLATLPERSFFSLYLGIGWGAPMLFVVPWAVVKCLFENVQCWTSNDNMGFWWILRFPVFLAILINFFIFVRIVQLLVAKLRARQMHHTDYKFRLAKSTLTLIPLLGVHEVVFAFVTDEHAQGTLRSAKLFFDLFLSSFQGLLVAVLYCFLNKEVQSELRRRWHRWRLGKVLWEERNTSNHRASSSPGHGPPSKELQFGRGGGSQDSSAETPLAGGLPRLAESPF

By EC50 is commonly meant the concentration that produces a half-maximal response. Regarding `CC(C)C[C@H](NC(=O)[C@H](Cc1ccc(O)cc1)NC(=O)[C@H](CCCCN)NC(=O)[C@H](CO)NC(=O)[C@H](CC(C)C)NC(=O)[C@H](CC(=O)O)NC(=O)[C@H](CO)NC(=O)[C@@H](NC(=O)[C@H](Cc1ccccc1)NC(=O)[C@@H](NC(=O)CNC(=O)[C@H](CCC(N)=O)NC(=O)C(C)(C)NC(=O)[C@@H](N)Cc1c[nH]cn1)[C@@H](C)O)[C@@H](C)O)C(=O)N[C@@H](CCC(=O)O)C(=O)N[C@@H](CO)C(=O)N[C@@H](CCCCN)C(=O)N[C@@H](CCCNC(=N)N)C(=O)N[C@@H](C)C(=O)N[C@@H](CCCNC(=N)N)C(=O)N[C@@H](CCC(=O)O)C(=O)N[C@@H](Cc1ccccc1)C(=O)N[C@H](C(=O)N[C@@H](CCC(N)=O)C(=O)N[C@@H](Cc1c[nH]c2ccccc12)C(=O)N[C@@H](CC(C)C)C(=O)N[C@@H](CC(C)C)C(=O)N[C@@H](CCCCNC(=O)CC[C@H](NC(=O)CC[C@H](NC(=O)[C@H](CO)NC(=O)[C@H](CCC(=O)O)NC(=O)[C@H](CO)NC(=O)CC[C@H](NC(=O)CC[C@H](NC(=O)CCCCCCCCCCCCCCCCC(=O)O)C(=O)O)C(=O)O)C(=O)O)C(=O)O)C(=O)N[C@H](C(N)=O)[C@@H](C)O)C(C)C` [Example 54, N^ε28-[(4S)-4-carboxy-4-[[(4S)-4-carboxy-4-[[(2S)-2-[[(2S)-4-carboxy-2-[[(2S)-2-[[(4S)-4-carboxy-4-[[(4S)-4-carboxy-4-(17-carboxyheptadecanoylamino)butanoyl]amino]butanoyl]amino]-3-hydroxypropanoyl]amino]butanoyl]amino]-3-hydroxypropanoyl]amino]butanoyl]amino]butanoyl]-[Aib2,Leu10,Glu15,Lys17,Arg20,Glu21,Leu27,Lys28]-Glucagon amide] (H-H[Aib]QGTFTSDLSKYLESKRAREFVQWLLK([γGlu-γGlu-Ser-Glu-Ser-γGlu-γGlu-C18 diacid])T-NH2; N-terminus assumed), the EC50 stood at 0.0127 nM. Take `CC(C)C[C@H](NC(=O)[C@H](Cc1ccc(O)cc1)NC(=O)[C@H](CCCNC(=N)N)NC(=O)[C@H](CO)NC(=O)[C@H](CC(C)C)NC(=O)[C@H](CC(=O)O)NC(=O)[C@H](CO)NC(=O)[C@@H](NC(=O)[C@H](Cc1ccccc1)NC(=O)[C@@H](NC(=O)CNC(=O)[C@H](CCC(N)=O)NC(=O)C1(NC(=O)[C@@H](N)Cc2c[nH]cn2)CCC1)[C@@H](C)O)[C@@H](C)O)C(=O)N[C@@H](CCC(=O)O)C(=O)N[C@@H](CO)C(=O)N[C@@H](CCCNC(=N)N)C(=O)N[C@@H](CCCNC(=N)N)C(=O)N[C@@H](C)C(=O)N[C@@H](CCCNC(=N)N)C(=O)N[C@@H](CCC(=O)O)C(=O)N[C@@H](Cc1ccccc1)C(=O)N[C@H](C(=O)N[C@@H](CCC(N)=O)C(=O)N[C@@H](Cc1c[nH]c2ccccc12)C(=O)N[C@@H](CC(C)C)C(=O)N[C@@H](CC(C)C)C(=O)N[C@@H](CCCCNC(=O)CC[C@H](NC(=O)CC[C@H](NC(=O)COCCOCCNC(=O)COCCOCCNC(=O)CC[C@H](NC(=O)CC[C@H](NC(=O)CCCCCCCCCCCCCCCCC(=O)O)C(=O)O)C(=O)O)C(=O)O)C(=O)O)C(=O)N[C@H](C(N)=O)[C@@H](C)O)C(C)C` [Example 59, N^ε28-[(4S)-4-carboxy-4-[[(4S)-4-carboxy-4-[[2-[2-[2-[[2-[2-[2-[[(4S)-4-carboxy-4-[[(4S)-4-carboxy-4-(17-carboxyheptadecanoylamino)butanoyl]amino]butanoyl]amino]ethoxy]ethoxy]acetyl]amino]ethoxy]ethoxy]acetyl]amino]butanoyl]amino]butanoyl]-[Acb2,Leu10,Arg12,Glu15,Arg20,Glu21,Leu27,Lys28]-Glucagon amide] (H-H[Ac4c]QGTFTSDLSRYLESRRAREFVQWLLK([γGlu-γGlu-AEEA-AEEA-γGlu-γGlu-C18 diacid])T-NH2; N-terminus assumed): the EC50 is 0.017 nM. As for `CC(C)C[C@H](NC(=O)[C@H](Cc1ccc(O)cc1)NC(=O)[C@H](CCCCN)NC(=O)[C@H](CO)NC(=O)[C@H](CC(C)C)NC(=O)[C@H](CC(=O)O)NC(=O)[C@H](CO)NC(=O)[C@@H](NC(=O)[C@H](Cc1ccccc1)NC(=O)[C@@H](NC(=O)CNC(=O)[C@H](CCC(N)=O)NC(=O)C(C)(C)NC(=O)[C@@H](N)Cc1c[nH]cn1)[C@@H](C)O)[C@@H](C)O)C(=O)N[C@@H](CCC(=O)O)C(=O)N[C@@H](CO)C(=O)N[C@@H](CCCNC(=N)N)C(=O)N[C@@H](CCCNC(=N)N)C(=O)N[C@@H](C)C(=O)N[C@@H](CCCNC(=N)N)C(=O)N[C@@H](CCC(=O)O)C(=O)N[C@@H](Cc1ccccc1)C(=O)N[C@H](C(=O)N[C@@H](CCC(N)=O)C(=O)N[C@@H](Cc1c[nH]c2ccccc12)C(=O)N[C@@H](CC(C)C)C(=O)N[C@@H](CC(C)C)C(=O)N[C@@H](CCCCNC(=O)CC[C@H](NC(=O)CC[C@H](NC(=O)COCCOCCNC(=O)COCCOCCNC(=O)CC[C@H](NC(=O)CC[C@H](NC(=O)CCCCCCCCCCCCCCCCC(=O)O)C(=O)O)C(=O)O)C(=O)O)C(=O)O)C(=O)N[C@H](C(N)=O)[C@@H](C)O)C(C)C` [Example 60, N^ε28-[(4S)-4-carboxy-4-[[(4S)-4-carboxy-4-[[2-[2-[2-[[2-[2-[2-[[(4S)-4-carboxy-4-[[(4S)-4-carboxy-4-(17-carboxyheptadecanoylamino)butanoyl]amino]butanoyl]amino]ethoxy]ethoxy]acetyl]amino]ethoxy]ethoxy]acetyl]amino]butanoyl]amino]butanoyl]-[Aib2,Leu10,Glu15,Arg20,Glu21,Leu27,Lys28]-Glucagon amide] (H-H[Aib]QGTFTSDLSKYLESRRAREFVQWLLK([γGlu-γGlu-AEEA-AEEA-γGlu-γGlu-C18 diacid])T-NH2; N-terminus assumed), the EC50 came to 0.054 nM.

On to `CC(C)C[C@H](NC(=O)[C@H](Cc1ccc(O)cc1)NC(=O)[C@H](CCCNC(=N)N)NC(=O)[C@H](CO)NC(=O)[C@H](CC(C)C)NC(=O)[C@H](CC(=O)O)NC(=O)[C@H](CO)NC(=O)[C@@H](NC(=O)[C@H](Cc1ccccc1)NC(=O)[C@@H](NC(=O)CNC(=O)[C@H](CCC(N)=O)NC(=O)C(C)(C)NC(=O)[C@@H](N)Cc1c[nH]cn1)[C@@H](C)O)[C@@H](C)O)C(=O)N[C@@H](CC(=O)O)C(=O)N[C@@H](C)C(=O)N[C@@H](CCCNC(=N)N)C(=O)N[C@@H](CCCNC(=N)N)C(=O)N[C@@H](C)C(=O)N[C@@H](CCCNC(=N)N)C(=O)N[C@@H](CC(=O)O)C(=O)N[C@@H](Cc1ccccc1)C(=O)N[C@H](C(=O)N[C@@H](CCC(N)=O)C(=O)N[C@@H](Cc1c[nH]c2ccccc12)C(=O)N[C@@H](CC(C)C)C(=O)N[C@@H](CC(C)C)C(=O)N[C@@H](CCCCNC(=O)CC[C@H](NC(=O)CC[C@H](NC(=O)CC[C@H](NC(=O)CCCCCCCCCCCCCCCCC(=O)O)C(=O)O)C(=O)O)C(=O)O)C(=O)N[C@H](C(N)=O)[C@@H](C)O)C(C)C` [Example 62, N^ε28-[(4S)-4-carboxy-4-[[(4S)-4-carboxy-4-[[(4S)-4-carboxy-4-(17-carboxyheptadecanoylamino)butanoyl]amino]butanoyl]amino]butanoyl]-[Aib2,Leu10,Arg12,Ala16,Arg20,Leu27,Lys28]-Glucagon amide] (H-H[Aib]QGTFTSDLSRYLDARRARDFVQWLLK([γGlu-γGlu-γGlu-C18 diacid])T-NH2; N-terminus assumed), for which the EC50 worked out at 0.01 nM. Consider `CC(C)C[C@H](NC(=O)[C@H](Cc1ccc(O)cc1)NC(=O)[C@H](CCCCN)NC(=O)[C@H](CO)NC(=O)[C@H](CC(C)C)NC(=O)[C@H](CC(=O)O)NC(=O)[C@H](CO)NC(=O)[C@@H](NC(=O)[C@H](Cc1ccccc1)NC(=O)[C@@H](NC(=O)CNC(=O)[C@H](CCC(N)=O)NC(=O)C1(NC(=O)[C@@H](N)Cc2c[nH]cn2)CCC1)[C@@H](C)O)[C@@H](C)O)C(=O)N[C@@H](CCC(=O)O)C(=O)N[C@@H](CO)C(=O)N[C@@H](CCCNC(=N)N)C(=O)N[C@@H](CCCNC(=N)N)C(=O)N[C@@H](C)C(=O)N[C@@H](CCC(N)=O)C(=O)N[C@@H](CC(=O)O)C(=O)N[C@@H](Cc1ccccc1)C(=O)N[C@H](C(=O)N[C@@H](CCC(N)=O)C(=O)N[C@@H](Cc1c[nH]c2ccccc12)C(=O)N[C@@H](CC(C)C)C(=O)N[C@@H](CC(C)C)C(=O)N[C@@H](CCCCNC(=O)COCCOCCNC(=O)COCCOCCNC(=O)CC[C@H](NC(=O)CC[C@H](NC(=O)CC[C@H](NC(=O)CCCCCCCCCCCCCCCCC(=O)O)C(=O)O)C(=O)O)C(=O)O)C(=O)N[C@H](C(N)=O)[C@@H](C)O)C(C)C` [Example 63, N^ε28-[2-[2-[2-[[2-[2-[2-[[(4S)-4-carboxy-4-[[(4S)-4-carboxy-4-[[(4S)-4-carboxy-4-(17-carboxyheptadecanoylamino)butanoyl]amino]butanoyl]amino]butanoyl]amino]ethoxy]ethoxy]acetyl]amino]ethoxy]ethoxy]acetyl]-[Acb2,Leu10,Glu15,Leu27,Lys28]-Glucagon amide] (H-H[Ac4c]QGTFTSDLSKYLESRRAQDFVQWLLK([AEEA-AEEA-γGlu-γGlu-γGlu-C18 diacid])T-NH2; N-terminus assumed), for which the EC50 was found to be 0.024 nM.
